The data set can be described thus: Solubilizing power: test substances added to 10 g of solubilizer until the solubility limit was reached. The class given is physicochemical. The text has this: Example 1 corresponds to the invention, Examples C1 and C2 are intended for comparison.
[1] abbreviates: in comparison solubilizer C1 (PEG-40 Hydrogenated Castor Oil 100 % by weight).
[2] abbreviates: in comparison solubilizer C2 (Cocoeth-8 100 % by weight).
Where [3] appears, read: in solubilizer of Example 1 (Cocoeth-8 40, PPG1-PEG9 Lauryl Glycol Ether 30, PEG-40 Hydrogenated Castor Oil 20, Water 10 % by weight).

As to `COc1ccc(/C=C/C(=O)OCCC(C)C)cc1` [Isoamyl Methoxycinnamate], the Solubility was 0.60 g/10 g solubilizer under setting [1], 0.70 g/10 g solubilizer under setting [2] and 1.10 g/10 g solubilizer under setting [3].
In turn, Tocopherol registered a Solubility under setting [1] of 0.40 g/10 g solubilizer, a Solubility under setting [2] of 0.50 g/10 g solubilizer and a Solubility under setting [3] of 0.90 g/10 g solubilizer.
The matching figures for `CC1CCC(C(C)C)C(O)C1` (stereo not drawn) [Menthol]: 1.10 g/10 g solubilizer, 1.05 g/10 g solubilizer and 4.80 g/10 g solubilizer.
The matching figures for `COc1ccc(C(=O)c2ccccc2)c(O)c1` [Benzophenone-3]: 0.40 g/10 g solubilizer, 0.20 g/10 g solubilizer and 0.44 g/10 g solubilizer.
For `CCCCC(CC)COC(=O)C=Cc1ccc(OC)cc1` (stereo not drawn) [Octyl Methoxycinnamate], in that order: 0.45 g/10 g solubilizer, 0.60 g/10 g solubilizer and 1.60 g/10 g solubilizer.
The compound `Cc1ccc(C=C2C(=O)C3(C)CCC2C3(C)C)cc1` (stereo not drawn) [4-Methylbenzylidene Camphor] showed a Solubility under setting [1] of 0.50 g/10 g solubilizer, a Solubility under setting [2] of 0.38 g/10 g solubilizer and a Solubility under setting [3] of 1.10 g/10 g solubilizer.
